Laboratory results published in ChEMBL document CHEMBL1201862, “PubChem BioAssay data set” (2004).
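Five compound concentrations were applied to cells in 96-well plates for 48 hours; endpoints were derived by simple linear interpolation of the resulting dose-response curve. The concentration for 50% growth inhibition is given as GI50.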 Calls of active or inactive are those of the source. No stated cut-off is given here; in the data, active = GI50 up to about 1.1 µM and inactive = higher.

Columns and labels:
Assay in all cases: growth of human tumour cells (NCI), 48 h
[1] = tested on: SK-MEL-28
[2] = tested on: DLD-1
[3] = tested on: SN12C
[4] = tested on: XF498
[5] = tested on: SF-295
[6] = tested on: DMS-114
[7] = tested on: SR
[8] = tested on: SF-268
[9] = tested on: OVCAR-8
[10] = tested on: NCI-H226
[11] = tested on: SK-OV-3
[12] = tested on: COLO 205
[13] = tested on: UACC-62
[14] = tested on: OVCAR-5
[15] = tested on: HT-29
[16] = tested on: SNB-78
[17] = tested on: OVCAR-3
[18] = tested on: HCT-116
[19] = tested on: NCI-H23
[20] = tested on: SK-MEL-2
[21] = tested on: 786-0
[22] = tested on: A498
[23] = tested on: KM-20L2
[24] = tested on: RPMI-8226
[25] = tested on: HOP-62
[26] = tested on: MOLT-4
[27] = tested on: Malme-3M
[28] = tested on: U-251
[29] = tested on: KM12
[30] = tested on: HCC 2998
[31] = tested on: NCI-H460
[32] = tested on: SNB-75
[33] = tested on: M14
[34] = tested on: LXFL 529
[35] = tested on: CCRF-CEM
[36] = tested on: A549
[37] = tested on: NCI-H522
[38] = tested on: UO-31
[39] = tested on: HL-60
[40] = tested on: K562
[41] = tested on: TK-10
[42] = tested on: HOP-92
[43] = tested on: ACHN
[44] = tested on: SW-620
[45] = tested on: IGROV-1
[46] = tested on: CAKI-1
[47] = tested on: UACC-257
[48] = tested on: EKVX
[49] = tested on: SK-MEL-5
[50] = tested on: M19-MEL
[51] = tested on: OVCAR-4
[52] = tested on: SNB-19
[53] = tested on: HCT-15
[54] = tested on: LOX IMVI
[55] = tested on: DMS-273
[56] = tested on: SF-539
[57] = tested on: RXF 393

Compound: O=C1NC(c2ccc(O)cc2)C2CCC1C2 (configuration not stated)
- GI50 [1]: > 100 µM (inactive)
- GI50 [2]: > 100 µM (inactive)
- GI50 [3]: > 100 µM (inactive)
- GI50 [4]: > 100 µM (inactive)
- GI50 [5]: > 100 µM (inactive)
- GI50 [6]: > 100 µM (inactive)
- GI50 [7]: > 100 µM (inactive)
- GI50 [8]: > 100 µM (inactive)
- GI50 [9]: > 100 µM (inactive)
- GI50 [10]: > 100 µM (inactive)
- GI50 [11]: > 100 µM (inactive)
- GI50 [12]: > 100 µM (inactive)
- GI50 [13]: > 100 µM (inactive)
- GI50 [14]: > 100 µM (inactive)
- GI50 [15]: > 100 µM (inactive)
- GI50 [16]: > 100 µM (inactive)
- GI50 [17]: > 100 µM (inactive)
- GI50 [18]: > 100 µM (inactive)
- GI50 [19]: > 100 µM (inactive)
- GI50 [20]: > 100 µM (inactive)
- GI50 [21]: > 100 µM (inactive)
- GI50 [22]: > 100 µM (inactive)
- GI50 [23]: > 100 µM (inactive)
- GI50 [24]: > 100 µM (inactive)
- GI50 [25]: > 100 µM (inactive)
- GI50 [26]: > 100 µM (inactive)
- GI50 [27]: > 100 µM (inactive)
- GI50 [28]: > 100 µM (inactive)
- GI50 [29]: > 100 µM (inactive)
- GI50 [30]: > 100 µM (inactive)
- GI50 [31]: > 100 µM (inactive)
- GI50 [32]: > 100 µM (inactive)
- GI50 [33]: > 100 µM (inactive)
- GI50 [34]: > 100 µM (inactive)
- GI50 [35]: > 100 µM (inactive)
- GI50 [36]: > 100 µM (inactive)
- GI50 [37]: > 100 µM (inactive)
- GI50 [38]: > 100 µM (inactive)
- GI50 [39]: > 100 µM (inactive)
- GI50 [40]: > 100 µM (inactive)
- GI50 [41]: > 100 µM (inactive)
- GI50 [42]: > 100 µM (inactive)
- GI50 [43]: > 100 µM (inactive)
- GI50 [44]: > 100 µM (inactive)
- GI50 [45]: > 100 µM (inactive)
- GI50 [46]: > 100 µM (inactive)
- GI50 [47]: > 100 µM (inactive)
- GI50 [48]: > 100 µM (inactive)
- GI50 [49]: > 100 µM (inactive)
- GI50 [50]: > 100 µM (inactive)
- GI50 [51]: > 100 µM (inactive)
- GI50 [52]: > 100 µM (inactive)

Compound: COC(=O)C1CCc2nnc(-c3ccccc3)n21 (configuration not stated)
- GI50 [1]: > 100 µM (inactive)
- GI50 [2]: > 100 µM (inactive)
- GI50 [3]: > 100 µM (inactive)
- GI50 [4]: > 100 µM (inactive)
- GI50 [53]: > 100 µM
- GI50 [5]: > 100 µM (inactive)
- GI50 [54]: > 100 µM (inactive)
- GI50 [6]: > 100 µM (inactive)
- GI50 [8]: > 100 µM (inactive)
- GI50 [9]: > 100 µM (inactive)
- GI50 [10]: > 100 µM (inactive)
- GI50 [12]: > 100 µM (inactive)
- GI50 [13]: > 100 µM (inactive)
- GI50 [14]: > 100 µM (inactive)
- GI50 [15]: > 100 µM (inactive)
- GI50 [16]: > 100 µM (inactive)
- GI50 [17]: > 100 µM (inactive)
- GI50 [18]: > 100 µM (inactive)
- GI50 [19]: > 100 µM (inactive)
- GI50 [20]: > 100 µM (inactive)
- GI50 [21]: > 100 µM (inactive)
- GI50 [22]: > 100 µM (inactive)
- GI50 [23]: > 100 µM (inactive)
- GI50 [24]: > 100 µM (inactive)
- GI50 [25]: > 100 µM (inactive)
- GI50 [26]: > 100 µM (inactive)
- GI50 [27]: > 100 µM (inactive)
- GI50 [28]: > 100 µM (inactive)
- GI50 [29]: > 100 µM (inactive)
- GI50 [30]: > 100 µM (inactive)
- GI50 [31]: > 100 µM (inactive)
- GI50 [32]: > 100 µM (inactive)
- GI50 [33]: > 100 µM (inactive)
- GI50 [34]: > 100 µM (inactive)
- GI50 [35]: > 100 µM (inactive)
- GI50 [36]: > 100 µM (inactive)
- GI50 [37]: > 100 µM (inactive)
- GI50 [38]: > 100 µM (inactive)
- GI50 [39]: > 100 µM (inactive)
- GI50 [40]: > 100 µM (inactive)
- GI50 [41]: > 100 µM (inactive)
- GI50 [42]: > 100 µM (inactive)
- GI50 [43]: > 100 µM (inactive)
- GI50 [44]: > 100 µM (inactive)
- GI50 [55]: > 10 µM (inactive)
- GI50 [45]: > 100 µM (inactive)
- GI50 [46]: > 100 µM (inactive)
- GI50 [56]: > 100 µM (inactive)
- GI50 [47]: > 100 µM (inactive)
- GI50 [48]: > 100 µM (inactive)
- GI50 [49]: > 100 µM (inactive)
- GI50 [50]: > 100 µM (inactive)
- GI50 [57]: > 100 µM (inactive)
- GI50 [51]: > 100 µM (inactive)
- GI50 [52]: > 100 µM (inactive)
